Where “and” joins values, the source holds several entries; their conditions need not be identical. Identical values can stand only once. Peptide text beside a SMILES is read from it. * marks the point of attachment. C16 diacid = O=C(O)CCCCCCCCCCCCCCC(=O)*; Palmitoyl = CCCCCCCCCCCCCCCC(=O)*
Key:
[1] = molecular target: T1, human GIP receptor (Homo sapiens, UniProt P48546); test: cAMP accumulation assay, antagonism of a GIP-mediated cAMP response (50-80% of max); type: cell-based; settings: for Fold change of IC50 versus GIP(5-30)NH2: fold change of IC50 from GIP(5-30)NH2
T1 construct: host or cells: COS-7, transient transfection (calcium phosphate), cDNA in pCMV-Script
T1 sequence (P48546 22-466): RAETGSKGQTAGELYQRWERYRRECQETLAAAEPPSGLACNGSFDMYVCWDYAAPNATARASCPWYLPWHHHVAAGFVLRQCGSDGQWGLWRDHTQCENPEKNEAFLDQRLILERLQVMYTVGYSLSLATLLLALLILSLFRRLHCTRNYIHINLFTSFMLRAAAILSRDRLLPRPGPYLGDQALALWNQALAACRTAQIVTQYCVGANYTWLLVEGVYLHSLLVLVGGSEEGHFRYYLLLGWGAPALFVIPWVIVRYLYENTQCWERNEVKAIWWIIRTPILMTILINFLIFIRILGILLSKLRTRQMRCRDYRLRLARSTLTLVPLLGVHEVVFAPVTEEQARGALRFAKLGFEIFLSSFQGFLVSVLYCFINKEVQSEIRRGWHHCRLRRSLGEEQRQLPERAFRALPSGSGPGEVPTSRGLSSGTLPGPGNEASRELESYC
Method: The day after, the cells were washed twice with Hepes buffered saline (HBS) buffer and incubated with HBS and 1 mM 3-isobutyl-1-methylxanthine (IBMX) for 30 min at 37° C. […] The HitHunter™ cAMP XS assay (DiscoveRx) was carried out according to the manufacturer's instructions.

[2] = molecular target: T1, human GIP receptor; test: cAMP accumulation assay, agonism (ligand alone); type: cell-based; settings: Table 1; for Emax: COS-7, intrinsic cAMP activity, COS-7 cells
[3] = molecular target: T1, human GIP receptor; test: 125I-human GIP competition binding assay, in the presence and absence of 2% HSA; settings: for Fold change HSA (2%)/Casein (0.1%): IC50 (plus HSA)/IC50 (minus HSA); for Binding (+/−HSA) Fold: fold change +HSA/−HSA;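 for all read-outs here: nonspecific binding taken as radioligand bound to untransfected cells, IC50 obtained from nonlinear regression fits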
[4] = transiently transfected COS-7 cells, Table 1 and text, read-out: cAMP antagonism nM (IC50, antagonistic potency)
[5] = heterologous competition binding, transiently transfected COS-7 cells expressing the human GIP receptor, read-out: Binding

SMILES	IC50 ([1]; antagonism of GIP-mediated cAMP response, COS-7 cells, read-out: cAMP accumulation IC50) [nM]	Fold change of IC50 versus GIP(5-30)NH2 [1]	IC50 [1, 4] [nM]	Emax [2] [%]	EC50 ([2]; given as log EC50 (negative sign), read-out: cAMP agonism EC50 (log) (converted)) [nM]	Fold change HSA (2%)/Casein (0.1%) [3]	Binding (+/−HSA) Fold [3]	Ki ([3]; presence of 2% HSA) [nM]	cAMP - antagonisme fold (paired) ([1]; fold vs GIP(3-30)NH2, Table 3b) [fold]	IC50 ([3]; 0.1% casein, no HSA, Table 3b, read-out: Binding logIC50 0.1% casein (converted)) [nM]	IC50 ([3]; 2% HSA, Table 3b, read-out: Binding logIC50 2% HSA (converted)) [nM]	IC50 ([3]; Table 3b, initial data, read-out: Binding IC50) [nM]	Binding fold (paired) ([3]; fold decrease in affinity compared to GIP(3-30)NH2, Table 3b) [fold]	IC50 [3, 5] [nM]	Fold change in affinity, IC50 (plus HSA)/IC50 (minus HSA) ([3]; presence vs absence of 2% HSA, proxy for albumin binding) [fold]	Ki ([3]; absence of HSA) [nM]	IC50 ([3]; heterologous competition binding, transiently transfected COS-7 cells expressing the human GIP receptor, log value of the nM column, read-out: Binding log (converted))	IC50 ([3]; binding in 0.1% casein (absence of HSA), log value, read-out: logIC50 0.1% casein (converted)) [nM]	IC50 ([3]; binding in presence of 2% HSA, read-out: logIC50 2% HSA (converted)) [nM]
CC[C@H](C)[C@H](NC(=O)[C@H](CO)NC(=O)[C@H](Cc1ccc(O)cc1)NC(=O)[C@H](CC(=O)O)NC(=O)[C@H](CO)NC(=O)[C@@H](NC(=O)[C@H](Cc1ccccc1)NC(=O)[C@@H](N)[C@@H](C)O)[C@@H](C)CC)C(=O)N[C@@H](C)C(=O)N[C@@H](CCSC)C(=O)N[C@@H](CC(=O)O)C(=O)N[C@@H](CCCCN)C(=O)N[C@H](C(=O)N[C@@H](Cc1c[nH]cn1)C(=O)N[C@@H](CCC(N)=O)C(=O)N[C@@H](CCC(N)=O)C(=O)N[C@@H](CC(=O)O)C(=O)N[C@@H](Cc1ccccc1)C(=O)N[C@H](C(=O)N[C@@H](CC(N)=O)C(=O)N[C@@H](CCCCNC(=O)CCCCCCCCCCCCCCC(=O)O)C(=O)N[C@@H](CC(C)C)C(=O)N[C@@H](CC(C)C)C(=O)N[C@@H](C)C(=O)N[C@@H](CCC(N)=O)C(=O)N[C@@H](CCCCN)C(N)=O)C(C)C)[C@@H](C)CC [AT185, [hGIP(5-30)NH2[W25K]-C16diacid/25]] (H-TFISDYSIAMDKIHQQDFVNK(C16 diacid)LLAQK-NH2; N-terminus assumed)	66.1	2.4	44	18	100	4.7	5.0	337											
CCCCCCCCCCCCCCCC(=O)NCCCC[C@H](NC(=O)[C@@H](NC(=O)[C@H](CCCCN)NC(=O)[C@H](CC(=O)O)NC(=O)[C@H](CC(C)C)NC(=O)[C@H](C)NC(=O)[C@@H](NC(=O)[C@H](CO)NC(=O)[C@H](Cc1ccc(O)cc1)NC(=O)[C@H](CC(=O)O)NC(=O)[C@H](CO)NC(=O)[C@@H](NC(=O)[C@H](Cc1ccccc1)NC(=O)[C@@H](NC(=O)CNC(=O)[C@@H](N)CCC(=O)O)[C@@H](C)O)[C@@H](C)CC)[C@@H](C)CC)[C@@H](C)CC)C(=O)N[C@@H](CCC(N)=O)C(=O)N[C@@H](CCC(N)=O)C(=O)N[C@@H](CC(=O)O)C(=O)N[C@@H](Cc1ccccc1)C(=O)N[C@H](C(=O)N[C@@H](CC(N)=O)C(=O)N[C@@H](Cc1c[nH]c2ccccc12)C(=O)N[C@@H](CC(C)C)C(=O)N[C@@H](CC(C)C)C(=O)N[C@@H](C)C(=O)N[C@@H](CCC(N)=O)C(=O)N[C@@H](CCCCN)C(N)=O)C(C)C [AT143, [hGIP(3-30)NH2[M14L; H18K]-C16/18]] (H-EGTFISDYSIALDKIK(Palmitoyl)QQDFVNWLLAQK-NH2; N-terminus assumed)			15	40					0.3	86.1	105	86.1	11	80	1.2				
CC[C@H](C)[C@H](NC(=O)[C@H](CO)NC(=O)[C@H](Cc1ccc(O)cc1)NC(=O)[C@H](CC(=O)O)NC(=O)[C@H](CO)NC(=O)[C@@H](NC(=O)[C@H](Cc1ccccc1)NC(=O)[C@@H](N)[C@@H](C)O)[C@@H](C)CC)C(=O)N[C@@H](C)C(=O)N[C@@H](CCSC)C(=O)N[C@@H](CC(=O)O)C(=O)N[C@@H](CCCCN)C(=O)N[C@H](C(=O)N[C@@H](Cc1c[nH]cn1)C(=O)N[C@@H](CCC(N)=O)C(=O)N[C@@H](CCC(N)=O)C(=O)N[C@@H](CC(=O)O)C(=O)N[C@@H](Cc1ccccc1)C(=O)N[C@H](C(=O)N[C@@H](CCCCNC(=O)CCCCCCCCCCCCCCC(=O)O)C(=O)N[C@@H](Cc1c[nH]c2ccccc12)C(=O)N[C@@H](CC(C)C)C(=O)N[C@@H](CC(C)C)C(=O)N[C@@H](C)C(=O)N[C@@H](CCC(N)=O)C(=O)N[C@@H](CCCCN)C(N)=O)C(C)C)[C@@H](C)CC [AT184, [hGIP(5-30)NH2[N24K]-C16diacid/24]] (H-TFISDYSIAMDKIHQQDFVK(C16 diacid)WLLAQK-NH2; N-terminus assumed)		3.9		0		1.6	3.9									224			
CC[C@H](C)[C@H](NC(=O)[C@H](CO)NC(=O)[C@H](Cc1ccc(O)cc1)NC(=O)[C@H](CC(=O)O)NC(=O)[C@H](CO)NC(=O)[C@@H](NC(=O)[C@H](Cc1ccccc1)NC(=O)[C@@H](N)[C@@H](C)O)[C@@H](C)CC)C(=O)N[C@@H](C)C(=O)N[C@@H](CCSC)C(=O)N[C@@H](CC(=O)O)C(=O)N[C@@H](CCCCN)C(=O)N[C@H](C(=O)N[C@@H](Cc1c[nH]cn1)C(=O)N[C@@H](CCC(N)=O)C(=O)N[C@@H](CCC(N)=O)C(=O)N[C@@H](CC(=O)O)C(=O)N[C@@H](Cc1ccccc1)C(=O)N[C@H](C(=O)N[C@@H](CC(N)=O)C(=O)N[C@@H](Cc1c[nH]c2ccccc12)C(=O)N[C@@H](CCCCNC(=O)CCCCCCCCCCCCCCC(=O)O)C(=O)N[C@@H](CC(C)C)C(=O)N[C@@H](C)C(=O)N[C@@H](CCC(N)=O)C(=O)N[C@@H](CCCCN)C(N)=O)C(C)C)[C@@H](C)CC [AT186, [hGIP(5-30)NH2[L26K]-C16diacid/26]] (H-TFISDYSIAMDKIHQQDFVNWK(C16 diacid)LAQK-NH2; N-terminus assumed)		2.6	79	0		3.8	7.9									105	158 nM and 144 nM		
CC[C@H](C)[C@H](NC(=O)[C@H](CO)NC(=O)[C@H](Cc1ccc(O)cc1)NC(=O)[C@H](CC(=O)O)NC(=O)[C@H](CO)NC(=O)[C@@H](NC(=O)[C@H](Cc1ccccc1)NC(=O)[C@@H](N)[C@@H](C)O)[C@@H](C)CC)C(=O)N[C@@H](C)C(=O)N[C@@H](CCSC)C(=O)N[C@@H](CC(=O)O)C(=O)N[C@@H](CCCCN)C(=O)N[C@H](C(=O)N[C@@H](Cc1c[nH]cn1)C(=O)N[C@@H](CCC(N)=O)C(=O)N[C@@H](CCC(N)=O)C(=O)N[C@@H](CC(=O)O)C(=O)N[C@@H](Cc1ccccc1)C(=O)N[C@@H](CCCCNC(=O)CCCCCCCCCCCCCCC(=O)O)C(=O)N[C@@H](CC(N)=O)C(=O)N[C@@H](Cc1c[nH]c2ccccc12)C(=O)N[C@@H](CC(C)C)C(=O)N[C@@H](CC(C)C)C(=O)N[C@@H](C)C(=O)N[C@@H](CCC(N)=O)C(=O)N[C@@H](CCCCN)C(N)=O)[C@@H](C)CC [AT183, [hGIP(5-30)NH2[V23K]-C16diacid/23]] (H-TFISDYSIAMDKIHQQDFK(C16 diacid)NWLLAQK-NH2; N-terminus assumed)		55.0		0		1.8	4.4												
CC[C@H](C)[C@H](NC(=O)[C@H](CO)NC(=O)[C@H](Cc1ccc(O)cc1)NC(=O)[C@H](CC(=O)O)NC(=O)[C@H](CO)NC(=O)[C@@H](NC(=O)[C@H](CCCCNC(=O)CCCCCCCCCCCCCCC(=O)O)NC(=O)[C@@H](N)[C@@H](C)O)[C@@H](C)CC)C(=O)N[C@@H](C)C(=O)N[C@@H](CCSC)C(=O)N[C@@H](CC(=O)O)C(=O)N[C@@H](CCCCN)C(=O)N[C@H](C(=O)N[C@@H](Cc1c[nH]cn1)C(=O)N[C@@H](CCC(N)=O)C(=O)N[C@@H](CCC(N)=O)C(=O)N[C@@H](CC(=O)O)C(=O)N[C@@H](Cc1ccccc1)C(=O)N[C@H](C(=O)N[C@@H](CC(N)=O)C(=O)N[C@@H](Cc1c[nH]c2ccccc12)C(=O)N[C@@H](CC(C)C)C(=O)N[C@@H](CC(C)C)C(=O)N[C@@H](C)C(=O)N[C@@H](CCC(N)=O)C(=O)N[C@@H](CCCCN)C(N)=O)C(C)C)[C@@H](C)CC [AT168, [hGIP(5-30)NH2[F6K]-C16diacid/6]]		5.3		0		2.0	2.3							48				50.1	100

Source: US11572399B2, “Long-acting GIP peptide analogues” (University of Copenhagen, priority 2017, dated 2023)
